Laboratory results taken from US11058758B2, “TH1-inducing adjuvant comprising combination of different nucleic acid adjuvants, and use of same” (National Institutes of Biomedical Innovation, Health and …, priority 2014, dated 2021).

Experiments:
C57BL/6J mice = assay: Intramuscular OVA immunization of mice: serum antibodies and splenocyte cytokines; assay type: in vivo, mouse; conditions: for serum anti-OVA IgG1 titer / OVA-specific IL-13 production by splenocytes: i.m. day 0 and day 10 with OVA; for serum anti-OVA IgG1 titer: serum day 17; for OVA-specific IL-13 production by splenocytes: splenocytes day 17, OVA 48 hours
Method: Mice were immunized intramuscularly on day 0 and day 10 with K3 CpG (10 μg), 3′3′/2′3′-cGAMP (1 μg), c-di-GMP (1 μg), DMXAA (50 μg), or OVA (10 μg) comprising or not comprising K3+3′3′/2′3′-cGAMP/c-di-GMP/DMXAA. On day 17, OVA specific sera IgG1 and IgG2c were measured by ELISA.
(B—C) mice were immunized intramuscularly on day 0 and day 10 with K3 CpG (10 μg), 3′3′/2′3′-cGAMP (1 μg), c-di-GMP (1 μg), DMXAA (50 μg), or OVA (10 μg) comprising or not comprising K3+3′3′/2′3′-cGAMP/c-di-GMP/DMXAA. Splenocytes were stimulated for 48 hours with OVA (10 μg/ml) protein. Production of IFNγ and IL-13 was measured by ELISA.
On day 17, the splenocytes were isolated and stimulated for 48 hours with a MHC class I (OVA257) or a MHC class II (OVA323) specific OVA or an OVA peptide.
On day 17, OVA specific sera IgG1 and IgG2c were measured by ELISA as previously described [Kuroda et al., Immunity. (2011) 34; 514-526]. The secondary antibodies used in ELISA of IgG2c and IgG1 were horseradish peroxidase conjugate goat anti-mouse IgG2c and IgG1 (Bethyl Laboratories, Montgomery, Tex.). On day 17, splenocytes were collected to prepare a single cell suspension using gentle MACS dissociator (miltenyi Biotech, Gladbach, Germany). […] IFNγ and IL-13 production was measured by ELISA.

mice = assay: OVA specific serum IgE after immunization; conditions: i.m. day 0 and day 10, serum day 17
[1] = system: IRF3/7, STING, MyD88, IL-12, and type I IFN signaling
Method: The vertical axis of the left panel indicates the concentration of IFNγ (ng/ml), and the vertical axis of the right panel indicates the concentration of IL-13 (ng/ml). […] The splenocytes were stimulated for 48 hours with OVA.
On day 17, OVA specific sera IgG2c and IgG1 were measured by ELISA.
The vertical axis of the left panel indicates the concentration of IFNγ (ng/ml), and the vertical axis of the right panel indicates the concentration of IL-13 (ng/ml). […] (D) The splenocytes were stimulated for 48 hours with OVA proteins.
On day 17, OVA specific serum IgG2c and IgG1 were measured by ELISA. Further, splenocytes were stimulated for 48 hours with OVA to measure IFNγ production by ELISA.
On day 17, OVA specific sera IgG2c and IgG1 were measured by ELISA. Further, splenocytes were stimulated for 48 hours with an OVA protein to measure IFNγ production by ELISA.

| Compound | serum anti-OVA IgG1 titer (C57BL/6J mice) | OVA-specific IL-13 production by splenocytes (C57BL/6J mice) | IgE of the serum in mice immunized with OVA (mice) | adjuvant type (C57BL/6J mice; OVA immunization, antibody and T cell responses) | dependency of Th2 responses on type I IFN signaling ([1]; IFNAR KO mice) | dependency of induced antibody responses on type I IFN signaling ([1]; IFNAR KO mice) | dependency of induced T cell responses on IRF3/7 and MyD88 ([1]; IRF3/7 DKO and MyD88 KO mice) | dependency of induced antibody and T cell responses on STING ([1]; Tmem173gt mice) |
| --- | --- | --- | --- | --- | --- | --- | --- | --- |
| Cc1ccc2c(=O)c3cccc(CC(=O)O)c3oc2c1C [DMXAA] | high | production of OVA-specific IL-13 | – | – | – | – | – | – |
| Nc1nc2c(ncn2[C@@H]2O[C@@H]3COP(=O)(O)O[C@H]4[C@@H](O)[C@H](n5cnc6c(=O)[nH]c(N)nc65)O[C@@H]4COP(=O)(O)O[C@H]3[C@H]2O)c(=O)[nH]1 [c-di-GMP] | high | production of OVA-specific IL-13 | – | – | – | – | – | – |
| Nc1nc2c(ncn2[C@@H]2O[C@@H]3COP(=O)(O)O[C@H]4[C@@H](O)[C@H](n5cnc6c(N)ncnc65)O[C@@H]4COP(=O)(O)O[C@H]3[C@H]2O)c(=O)[nH]1 [cGAMP, 3′3′-cGAMP] | high | production of OVA-specific IL-13 | induce IgE | type 2 adjuvant | not dependent thereon | dependent on type I IFN signaling | partially dependent on IRF3/7 and surprisingly dependent on MyD88 | completely dependent on STING |
